Experimental data as given in publication PMC8138013, “Rational design of innate defense regulator peptides as tumor vaccine adjuvants” (NPJ Vaccines, 2021).

Experiments:
JAWSII cells [1] = assay: RT-qPCR of transcription factor mRNA after DP7, with or without chemical inhibitors; format: cell-based, mouse; settings: for effect of inhibitor on DP7-induced mRNA expression of transcription factors: pretreatment 1 h at 10 μM (BIBR796 5 μM) or PTX 200 ng/ml 3 h, then DP7 30 min, compared to DP7 alone
Protocol: [The procedure below names another cell line; the source lists this cell line under the same test.] Small molecule inhibitors were employed to elucidate the upstream signaling pathways involved in the expression of 6 transcription factors: selumetinib (MEK1/2 inhibitor), BIBR796 (p38α inhibitor), sp600125 (pan JNK inhibitor), XMD8-92 (Erk5 inhibitor), sotrastaurin (PKCθ inhibitor), AS-605240 (PI3Kγ inhibitor), LY294002 (PI3Kα/β/γ inhibitor) and pertussis toxin (PTX, Gi protein inhibitor). BMDCs were pretreated with 10 μM selumetinib, 5 μM BIBR796, 10 μM sp600125, 10 μM XMD8-92, 10 μM sotrastaurin, 10 μM AS-605240, and 10 μM LY294002 at 37 °C for 1 h and with 200 ng/ml PTX at 37 °C for 3 h. BMDCs were exposed to DP7 at 37 °C for 30 min, and then the mRNA expression of the transcription factors was examined by RT-qPCR.
Total RNA was isolated using TRIzol reagent (Takara, Otsu, Japan), further purified by isopropanol/ethanol precipitation and finally dissolved in RNase-Free H2O. cDNA was prepared with 5× All-In-One MasterMix with the AccuRT Genomic DNA Removal Kit (Abm Canada Inc., Milton, ON, Canada) and employed as a template to assess the expression of various genes with EvaGreen 2× qPCR MasterMix (Abm Canada Inc., Milton, ON, Canada). The results were analyzed according to the relative expression normalized against β-actin.

C57BL/6 mice = assay: Leukocyte recruitment to peritoneal lavage; format: in vivo, mouse; settings: C57BL/6, 200 μg i.p., 24 h post-injection, N = 5, vs saline
Protocol: C57BL/6 mice (N = 5) were intraperitoneally injected with 200 μg DP7, DP8, or DP10. An equal volume of sterile saline served as a control. Cells in the peritoneal lavage were collected and counted at 24 h postinjection. To analyze the recruitment of leukocytes, cells were stained with PE-anti-mouse-GR-1(clone RB6-8C5; BD Biosciences Cat# 553128), APC-anti-mouse-F4/80 (clone T45-2342; BD Biosciences Cat# 566787) or PE-anti-CD11b (clone M1/70; BD Biosciences Cat# 557397) at 4 °C for 30 min and then detected using a BD FACSCalibur (BD Biosciences, San Jose, CA). Neutrophils, inflammatory monocytes and macrophages were gated as Gr1^+F4/80^−, F4/80^+Gr1^+, and F4/80^+CD11b^+ cells, respectively.

BMDCs [2] = assay: BMDC maturation surface markers (flow cytometry); format: cell-based, mouse; settings: CD11c+ BMDCs, 16 h, DP7 40 µg/ml, CpG 20 µg/ml
Protocol: To study the effect of the CpG/DP7 complex on BMDCs, BMDCs were incubated with DP7 (40 µg/ml), CpG (20 µg/ml) or the CpG/DP7 combination for 16 h, stained with APC-anti-Mouse CD11c (Clone HL3; BD Biosciences Cat# 550261), FITC-anti-mouse-CD40 (Clone 3/23; BD Biosciences Cat# 561845), PerCP-Cy5.5-anti-mouse-CD80(clone 16-10A1; BD Biosciences Cat# 560526) or FITC-anti-mouse-CD86 (clone GL1; BD Biosciences Cat# 561962). BMDCs were gated as CD11c^+ and analyzed for CD40, CD80, CD86 expression by NovoExpress software (ACEA Biosciences, Inc.).

BMDCs [3] = assay: RNA-Seq analysis of BMDCs challenged with DP7; format: cell-based, mouse; settings: DP7 30 min vs control
JAWSII cells [4] = assay: Intracellular calcium measurement (Fluo 3-AM); format: cell-based, mouse; settings: DP7 40 µg/ml, 15 and 30 min
Protocol: JAWSII cells (1 × 10^5) were seeded into 96-well clear–bottom black plates (Corning, New York, USA.) with six replicate wells per condition and cultured at 37 °C overnight. The cells were washed once with Hank’s buffer followed by incubation with the calcium fluorescence probe Fluo 3-AM (5 μM; excitation at 506 nm and emission at 526 nm) (Beyotime, Hangzhou, China) in Hank’s buffer at 37 °C for 30 min. After treatment, the cells were washed once with Hank’s buffer and subsequently stimulated with DP7 (40 µg/ml) for 15 min or 30 min. Fluorescence was measured by a Celligo® imaging cytometer. The Ca^2+ levels are represented by the mean fluorescence intensity of individual cells.

GPR35 = assay: Receptor internalization assay; format: cell-based, mouse; settings: BMDCs, DP7 40 μg/ml, 30 min, immunofluorescence; similar in JASWII and RAW264.7 cells
Protocol: BMDCs (1 × 10^5) were plated on a microscope cover glass and cultured at 37 °C overnight. The next day, the cells were stimulated with 40 μg/ml DP7 at 37 °C for 30 min and then fixed in 4% paraformaldehyde in PBS at room temperature for 15 min. After washing with PBS 3 times, the BMDCs were blocked and permeabilized in buffer containing 0.1% bovine serum albumin (BSA), 0.5% Triton X-100, and 4% goat serum in PBS for 1 h. Afterward, the BMDCs were incubated with goat anti-GPR35 (clone M-14; Santa Cruz Biotechnology Cat# sc-79507; 1:100) in 3% BSA/PBS buffer at 4 °C for 16 h, followed by staining with the FITC-labeled anti-goat IgG (H + L) secondary antibody (1:100, ZSGB-BIO, Beijing, China) in 3% BSA/PBS buffer at 37 °C for 1 h. BMDCs were finally stained with DAPI and stored at 4 °C until imaging. Confocal imaging was performed with an LSM 800 Zeiss confocal microscope.

JAWSII cells [5] = assay: Western blotting of Erk1/2 phosphorylation in JAWSII cells; format: cell-based, mouse
From the text: Protein extracts from each sample were separated by 12% SDS-PAGE and transferred onto polyvinylidene fluoride membranes (Millipore, Billerica, MA). The membranes were blocked with 5% non-fat milk. Then, the protein bands were probed with primary antibodies against NF-κB p65 XP® Rabbit mAb (clone D14E12; Cell Signaling Technology Cat#8242), Phospho-NF-κB p65 (Ser536) Rabbit mAb (clone 93H1; Cell Signaling Technology Cat#3033), Erk1/2 Rabbit mAb (clone 137F5; Cell Signaling Technology Cat#4695) and Phospho- Erk1/2 (Thr202/Tyr204) XP® Rabbit mAb (clone D13.14.4E; Cell Signaling Technology Cat#4370) overnight at 4 °C. Then the membranes were incubated with horseradish peroxidase-conjugated goat anti-rabbit IgG (1:3000; Cell Signaling Technology Cat#7074). The blots derive from the same experiment were processed in parallel. The full, uncropped blot with molecular weight marker are shown in Supplementary Fig. 9.

Compound: O=C1NC(=O)/C(=C\c2ccc3nccnc3c2)S1 [AS-605240]
- effect of inhibitor on DP7-induced mRNA expression of transcription factors (JAWSII cells [1]): significantly suppressed

Compound: Cc1ccc(-n2nc(C(C)(C)C)cc2NC(=O)Nc2ccc(OCCN3CCOCC3)c3ccccc23)cc1 [BIBR796]
- effect of inhibitor on DP7-induced mRNA expression of transcription factors (JAWSII cells [1]): little or no inhibitory effect

Compound: O=c1cc(N2CCOCC2)oc2c(-c3ccccc3)cccc12 [LY294002]
- effect of inhibitor on DP7-induced mRNA expression of transcription factors (JAWSII cells [1]): little or no inhibitory effect

Compound: CCOc1cc(N2CCC(O)CC2)ccc1Nc1ncc2c(n1)N(C)c1ccccc1C(=O)N2C [XMD8-92]
- effect of inhibitor on DP7-induced mRNA expression of transcription factors (JAWSII cells [1]): little or no inhibitory effect

Compound: Cn1cnc2c(F)c(Nc3ccc(Br)cc3Cl)c(C(=O)NOCCO)cc21 [selumetinib]
- effect of inhibitor on DP7-induced mRNA expression of transcription factors (JAWSII cells [1]): significantly suppressed

Compound: CN1CCN(c2nc(C3=C(c4c[nH]c5ccccc45)C(=O)NC3=O)c3ccccc3n2)CC1 [sotrastaurin]
- effect of inhibitor on DP7-induced mRNA expression of transcription factors (JAWSII cells [1]): significantly suppressed

Compound: Oc1c2ccccc2c2c3c(cccc13)N=N2 [sp600125]
- effect of inhibitor on DP7-induced mRNA expression of transcription factors (JAWSII cells [1]): little or no inhibitory effect

Compound: VQWRIRVAVIRK [DP7]
- number of macrophages in the peritoneal lavage (C57BL/6 mice): modest but nonsignificant increase
- numbers of monocytes and neutrophils in the peritoneal lavage (C57BL/6 mice): significant increase
- CD40-FITC positive BMDCs (BMDCs [2]): 1.1%
- CD80-PerCP-Cy5.5 positive BMDCs (BMDCs [2]): 28.9%
- CD86-FITC positive BMDCs (BMDCs [2]): 36.2%
- Fold change, Akap9 (BMDCs [3]): 2.08
- Fold change, Arap2 (BMDCs [3]): 2.02
- Fold change, Atxn1l (BMDCs [3]): 2.04
- Fold change, Btg2 (BMDCs [3]): 2.47
- Fold change, Ccdc77 (BMDCs [3]): 2.06
- Fold change, Ccno (BMDCs [3]): 2.1
- Fold change, Clec4b2 (BMDCs [3]): 2.82
- Fold change, Depdc5 (BMDCs [3]): 2.01
- Fold change, Dgkh (BMDCs [3]): 2.4
- Fold change, Egr1 (BMDCs [3]): 16.63
- Fold change, Egr2 (BMDCs [3]): 2.4
- Fold change, Egr3 (BMDCs [3]): 15.7
- Fold change, Ethe1 (BMDCs [3]): 2.89
- Fold change, F3 (BMDCs [3]): 2.23
- Fold change, Fbxw7 (BMDCs [3]): 2.25
- Fold change, Fos (BMDCs [3]): 6.34
- Fold change, Fosb (BMDCs [3]): 114.79
- Fold change, Gm6377 (BMDCs [3]): 2.68
- Fold change, Gm9159 (BMDCs [3]): 2.03
- Fold change, Gm12359 (BMDCs [3]): 2.13
- Fold change, Gpr35 (BMDCs [3]): 2.2
- Fold change, Gpr52 (BMDCs [3]): 3.32
- Fold change, Gsta1 (BMDCs [3]): 3.08
- Fold change, Ier2 (BMDCs [3]): 3.15
- Fold change, Igj (BMDCs [3]): 2.68
- Fold change, Jmjd1c (BMDCs [3]): 2.09
- Fold change, Klhl15 (BMDCs [3]): 3.73
- Fold change, Lmo1 (BMDCs [3]): 2.81
- Fold change, Lrrc40 (BMDCs [3]): 2.19
- Fold change, Nr4a1 (BMDCs [3]): 19.81
- Fold change, Nr4a2 (BMDCs [3]): 2.02
- Fold change, Osm (BMDCs [3]): 2.42
- Fold change, Parp6 (BMDCs [3]): 2.3
- Fold change, Perp (BMDCs [3]): 2.05
- Fold change, Phf8 (BMDCs [3]): 2.17
- Fold change, Plk3 (BMDCs [3]): 2.75
- Fold change, Prph (BMDCs [3]): 2.22
- Fold change, Prrg4 (BMDCs [3]): 2.05
- Fold change, Slc38a9 (BMDCs [3]): 2.15
- Fold change, Suco (BMDCs [3]): 2.19
- Fold change, Szt2 (BMDCs [3]): 2.01
- Fold change, Tjp1 (BMDCs [3]): 3.44
- Fold change, Tmem51 (BMDCs [3]): 2.05
- Fold change, Tnfaip6 (BMDCs [3]): 2.01
- Fold change, Trib1 (BMDCs [3]): 2.69
- expression of Egr1, Egr2, Egr3, c-Fos, Fosb and Nr4a1 mRNA (JAWSII cells [1]; DP7 40 μg/ml, 30 min, vs nonstimulated): elevated expression
- intracellular Ca2+ levels (JAWSII cells [4]): elevation
- GPR35 localisation after stimulation (GPR35): internalization of GPR35 into the cytoplasm
- Erk1/2 phosphorylation (JAWSII cells [5]; JAWSII cells, DP7 30 and 60 min, western blotting): enhancement

Compound: pertussis toxin [PTX, reference compound]
- effect of inhibitor on DP7-induced mRNA expression of transcription factors (JAWSII cells [1]): significantly suppressed
- effect on activation of pErk1/2 by DP7 (JAWSII cells [5]; JAWSII cells pretreated with PTX, then DP7 30 and 60 min): partially abolished
